According to patent US6489350B1, “Methods for treating neuropathic pain using heteroarylmethanesulfonamides” (Elan Pharmaceuticals, Inc., priority 1999, dated 2002):
Entries after “also recorded” stand apart in the source; their conditions may differ.

Columns and labels:
[1] = test system: formalin-evoked behavior in diabetic rats; details: 50 mg/kg i.p. 30 min pre-test; 5.0% formalin; both control and diabetic rats; cited from earlier work
[2] = test system: Rats with Streptozotocin (STZ)-Induced Diabetes Mellitus and Consequent Diabetic Neuropathy; assay: Paw withdrawal force (mechanical hyperalgesia) in rats with streptozotocin-induced diabetes; assay type: in vivo, Male Wistar rats; details: for Paw withdrawal threshold force, Week 1 Mean: Week 1, before drug treatment (baseline); for Paw withdrawal threshold force, Week 2 Mean: Week 2, before drug treatment (baseline); for Paw withdrawal threshold force, Week 3 Mean: Week 3, before drug treatment (baseline); for Paw withdrawal threshold force, Week 4 Mean: Week 4, before drug treatment (baseline)
Procedure: Male Wistar rats (250-300 g), following an overnight fast, were made diabetic with 55 mg/kg i.p. streptozotocin (Sigma, St. Louis, Mo., USA). Tail ven blood was sampled 48 h later and glucose estimated by reflectance photometry (Reflocheck, Boehringer Mannheim). All STZ-treated rats had blood glucose >15 mmol/l and were included in the study. Animals were housed in boxes of three or four and maintained with food and water ad libitum for up to 6 weeks. non-diabetic control rats were housed in identical conditions. Each week (Friday) paw—pressure latency was measured as described immediately below.
A force was applied at a constant rate with a cone-shaped piston to the upper surface of the rat hindpaw until paw withdrawal; the force triggering withdrawal is measured as the “paw withdrawal force”. An arbitrary cut-off force of 240 g was adopted to preclude traumatic damage. Rats are trained such that latency is measured weekly, on Fridays.
At the start of week 5, drug treatments as defined for each of the groups set out below were commenced, such that 5 treatments preceded paw pressure testing. The injections and pressure test were timed so that, for each rat, the pressure test was made between 30 and 35 min after injection.
Monday of week 1 the rats were injected with streptozotocin and blood glucose determinations were made Wednesday of that week, on the Friday the 1st paw pressure test was performed. In weeks 2, 3, and 4 only paw pressure tests were performed on each of the Fridays. In week 5 treatments of groups C, D and E were begun with either zonisarnide (Groups C and D) or MK-801 (Group E) and paw pressure tests were performed on all groups on Friday.
Group B was given a single dose of zonisamide at 50 mg/kg on the Friday of week 6 and paw withdrawal force measured 30 min later.
Group D was maintained without treatment for week 6 (drug “washout”) and measured again on the Friday of week 6.
Data are means with standard deviations. Zonisamide was given once daily (p.o.) between 08:30 and 09:00 for 5 days during Week 5. MK-801 was given at 0.1 mg/kg i.p. twice daily (morning and evening). All measurements were made on Fridays between 10:30 and 13:30 hr. In Week 6, the designated “diabetic untreated” group (Group B) was given a single p.o. dose of 50 mg/kg zonisamide 2-3 h before measurement. For Week 6, drug treatment was withdrawn from Group D (last dose on Friday of week 5).

[3] = test system: formalin-induced hyperalgesia in rats; assay: Formalin test model in rats (paw flinches); assay type: in vivo, rat
Procedure: The formalin test model in rats was conducted based on the protocol developed and reported by Malmberg A. B. and Yaksh T. L. (1992) as an animal model of hyperalgesia.
The formalin pain test produces an “early” pain that rapidly rises and falls in intensity during the first five minutes after the injection, followed by a “late” pain, which begins about 15 minutes after the injection and persists for about an hour. It has been observed that this formalin-induced pain continues even after the nerves carrying pain signals have been blocked which implies that long-lasting pain is determined not only by sensory stimulation during the discomfort but also by brain processes that persist without continual priming.
Eight (8) animals received 100 mg/kg zonisamide via oral (gastric lavage tube) administration, and eight (8) animals received sterile water as a vehicle. On the morning of testing, a small metal band (0.5 g) was loosely placed around the right hind paw. After 1 hour, the rat was placed in a cylindrical plexiglass changer for adaptation. After one additional hour, the rat was then placed in a similar cylindrical chamber that was placed on the sensing pad of an automated formalin device that senses the movement of the metal band in the space above the area above the pad. The formalin test involved injecting 50 μl of 5% formalin into the dorsal surface of the right hindpaw. […] These flinches were counted automatically and continuously over the following one-hour interval. At one hour the animal was removed and sacrificed by carbon dioxide inhalation.
The results of the tests are presented in FIGS. 2A as summations at 5-minute intervals, and in 2B broken down into phase responses. (Phase I being the “early” pain response to the formalin injection and phase II, IIA and IIB being “late” phase parts of the facilitated response state discussed above and in the Detailed Description).

[4] = Group E diabetic, MK-801 0.1 mg/kg group
[5] = Group C diabetic, zonisamide 20 mg/kg group
[6] = Group D diabetic, zonisamide 50 mg/kg group
[7] = 100 mg/kg orally prior to 5% formalin injection, vs water vehicle

NCC1(CC(=O)O)CCCCC1 [Gabapentin, 1-(aminomethyl)cyclohexaneacetic acid]
Flinching during phases 1 and 2 of the formalin test [1]: suppressed flinching

C[C@]12N[C@H](Cc3ccccc31)c1ccccc12 [MK-801, dizocilpine]
Paw withdrawal threshold force, Week 1 Mean [2, 4]: 214.9 g
Paw withdrawal threshold force, Week 2 Mean [2, 4]: 207.1 g
Paw withdrawal threshold force, Week 3 Mean [2, 4]: 200.0 g
Paw withdrawal threshold force, Week 4 Mean [2, 4]: 191.4 g
Paw withdrawal threshold force, Week 5 Mean ([2]; Group E diabetic, 0.1 mg/kg i.p. twice daily for 5 days during Week 5): 221.8 g

NS(=O)(=O)Cc1noc2ccccc12 [zonisamide, 1,2-benzisoxazole-3-methanesulfonamide]
Effect on hyperalgesia (change in paw withdrawal force) ([2]; 20 mg/kg p.o. for 5 days, reduction in tolerated force still present and significant (p<0.0002)): attenuated this hyperalgesia
Effect on hyperalgesia (change in paw withdrawal force) ([2]; 50 mg/kg p.o. daily for 5 days, p=0.703, paired t-test): obliterated the change in paw withdrawal force; also recorded: increase in force necessary to evoke a hyperalgesic pain response
Activity against mechanical hyperalgesia (conclusion) ([2]; 4-5 weeks of STZ diabetes in rats, dose related): active against the mechanical hyperalgesia
Paw withdrawal threshold force, Week 6 Mean ([2]; Group B, previously untreated diabetic rats, single p.o. dose of 50 mg/kg in Week 6): 213.6 g
Paw withdrawal threshold force, Week 1 Mean [2, 5]: 212.2 g
Paw withdrawal threshold force, Week 2 Mean [2, 5]: 206.4 g
Paw withdrawal threshold force, Week 3 Mean [2, 5]: 199.6 g
Paw withdrawal threshold force, Week 4 Mean [2, 5]: 190.0 g
Paw withdrawal threshold force, Week 5 Mean ([2]; Group C diabetic, 20 mg/kg p.o. once daily for 5 days during Week 5): 195.0 g
Paw withdrawal threshold force, Week 1 Mean [2, 6]: 212.72 g
Paw withdrawal threshold force, Week 2 Mean [2, 6]: 208.9 g
Paw withdrawal threshold force, Week 3 Mean [2, 6]: 200.7 g
Paw withdrawal threshold force, Week 4 Mean [2, 6]: 191.5 g
Paw withdrawal threshold force, Week 5 Mean ([2]; Group D diabetic, 50 mg/kg p.o. once daily for 5 days during Week 5): 214.9 g
Paw withdrawal threshold force, Week 6 Mean ([2]; Group D diabetic, Week 6, drug washout, last 50 mg/kg dose on Friday of week 5): 186.2 g
Effect of withdrawal and washout of the drug on hyperalgesia ([2]; one week after treatment with 50 mg/kg for 5 days, p<0.002, 50 mg/kg): return of the hyperalgesia; also recorded: force required to cause a paw withdrawal reaction was reduced
Effect on mechanical hyperalgesia after a single dose ([2]; previously untreated diabetic rats, single 50 mg/kg dose, p<<0.0001, 50 mg/kg): obliterated the mechanical hyperalgesia; also recorded: increase in force necessary to evoke a hyperalgesic pain response
Effect on Phase I flinches [3, 7]: not significant effect
Effect on Phase II flinches [3, 7]: not significant effect
Effect on Phase IIA flinches [3, 7]: statistically significant effect; also recorded: significantly reduced
Effect on Phase IIB flinches [3, 7]: not significant effect
Behavioral deficits ([3]; 100 mg/kg orally, rats): No behavioral deficits were noted
